The values that follow come from patent US20240228488A1 (TAKEDA PHARMACEUTICAL COMPANY LIMITED, priority 2021, published 2024).

Structures are written as SMILES. A value given as a limit tells only on which side of the number the result lay.

One may read the EC50 as the concentration giving half of the maximal effect.

Sequence of human activated kallikrein enzyme (P03952 391-638 limits assumed): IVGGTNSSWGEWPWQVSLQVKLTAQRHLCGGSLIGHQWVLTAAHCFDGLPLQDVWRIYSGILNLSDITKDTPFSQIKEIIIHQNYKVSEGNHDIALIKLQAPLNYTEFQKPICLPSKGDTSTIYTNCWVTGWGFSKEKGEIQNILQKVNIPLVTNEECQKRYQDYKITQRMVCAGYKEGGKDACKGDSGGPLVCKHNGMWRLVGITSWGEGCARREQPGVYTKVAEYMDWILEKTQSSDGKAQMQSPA
Sequence of human activated kallikrein enzyme (P03952 20-390 partner limits assumed): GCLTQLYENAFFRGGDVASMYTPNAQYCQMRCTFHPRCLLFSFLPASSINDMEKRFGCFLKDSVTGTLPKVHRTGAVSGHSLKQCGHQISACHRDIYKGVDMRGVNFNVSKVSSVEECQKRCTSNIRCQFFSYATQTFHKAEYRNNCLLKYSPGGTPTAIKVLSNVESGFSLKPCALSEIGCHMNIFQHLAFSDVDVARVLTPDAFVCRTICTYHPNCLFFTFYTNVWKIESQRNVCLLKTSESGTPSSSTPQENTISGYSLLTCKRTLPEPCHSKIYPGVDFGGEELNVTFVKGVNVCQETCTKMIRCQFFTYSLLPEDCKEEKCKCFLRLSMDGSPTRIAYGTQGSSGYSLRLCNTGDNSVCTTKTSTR

This assay concerns the target human activated kallikrein enzyme (Homo sapiens, UniProt P03952). The assay can be described thus: Plasma kallikrein inhibition, fluorogenic PFR-AMC substrate, 500 pM activated kallikrein format. The settings on record: 500 pM activated kallikrein, 300 uM PFR-AMC, 30 min preincubation, 10 min reaction; read-out: Primary Dose Response Assay: Average EC50. The class given is biochemical. A digest of the protocol: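 High-enzyme format of the fluorogenic peptide assay, with EC50 taken from AMC signal: 500 pM activated kallikrein, 300 uM Pro-Phe-Arg-AMC, 30 min compound preincubation and 10 min reaction, all at room temperature, pH 7.5.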
As to `O=C(Nc1cc(NC(c2cn3cc(C4CC4)ccc3n2)C(F)(F)F)ccn1)[C@H]1C[C@@H]1c1cccc(Cl)c1` (stereo partly shown) [Example 141], the EC50 lay in the range of 100 to 1000 nM.

As for `N[C@H]1C[C@H](c2cn3cc(C4CC4)ccc3n2)N(c2cc(NC(=O)[C@H]3C[C@@H]3c3cccc(Cl)c3)ncn2)C1` [Example 297, (1S,2S)—N-(6-((2R,4S)-4-amino-2-(6-cyclopropylimidazo[1,2-a]pyridin-2-yl)pyrrolidin-1-yl)pyrimidin-4-yl)-2-(3-chlorophenyl)cyclopropane-1-carboxamide], the 50% effective concentration (EC50) lay within 1000 to 6000 nM.

Take `O=C(O)c1cc(C2CC2)cn2cc(CNc3cc(NC(=O)[C@H]4C[C@@H]4c4cccc(Cl)c4)ncn3)nc12` [Example 298, 2-(((6-((1S,2S)-2-(3-chlorophenyl)cyclopropane-1-carboxamido)pyrimidin-4-yl)amino)methyl)-6-cyclopropylimidazo[1,2-a]pyridine-8-carboxylic acid]: the EC50 lay within 1 to 10 nM.

`NC(=O)c1cc(C2CC2)cn2cc(CNc3cc(NC(=O)[C@H]4C[C@@H]4c4cccc(Cl)c4)ncn3)nc12` [Example 302, 2-(((6-((1S,2S)-2-(3-chlorophenyl)cyclopropane-1-carboxamido)pyrimidin-4-yl)amino)methyl)-6-cyclopropylimidazo[1,2-a]pyridine-8-carboxamide]: the EC50 was 1 to 10 nM.

With `CNC(=O)c1cc(C2CC2)cn2cc(CNc3cc(NC(=O)[C@H]4C[C@@H]4c4cccc(Cl)c4)ncn3)nc12` [Example 303, 2-(((6-((1S,2S)-2-(3-chlorophenyl)cyclopropane-1-carboxamido)pyrimidin-4-yl)amino)methyl)-6-cyclopropyl-N-methylimidazo[1,2-a]pyridine-8-carboxamide], the EC50 lay within 1 to 10 nM.

For the compound `O=C(Nc1cc(NCc2cn3cc(C4CC4)cc(OC4CNC4)c3n2)ncn1)[C@H]1C[C@@H]1c1cccc(Cl)c1` [Example 306, (1S,2S)—N-(6-(((8-(azetidin-3-yloxy)-6-cyclopropylimidazo[1,2-a]pyridin-2-yl)methyl)amino)pyrimidin-4-yl)-2-(3-chlorophenyl)cyclopropane-1-carboxamide], the EC50 was less than 1 nM.

For `Nc1cc(C2CC2)cn2cc(CNc3cc(NC(=O)[C@H]4C[C@@H]4c4cccc(Cl)c4)ncn3)nc12` [Example 308, (1S,2S)—N-(6-(((8-amino-6-cyclopropylimidazo[1,2-a]pyridin-2-yl)methyl)amino)pyrimidin-4-yl)-2-(3-chlorophenyl)cyclopropane-1-carboxamide], the half-maximal effective concentration (EC50) lay within 1 to 10 nM.

Consider `CS(=O)(=O)c1cc(C2CC2)cn2cc(CNc3cc(NC(=O)[C@H]4C[C@@H]4c4cc(Cl)ccn4)ncn3)nc12` [Example 325, (1S,2S)-2-(4-chloropyridin-2-yl)-N-(6-(((6-cyclopropyl-8-(methylsulfonyl)imidazo[1,2-a]pyridin-2-yl)methyl)amino)pyrimidin-4-yl)cyclopropane-1-carboxamide], for which the EC50 is less than 1 nM.

As to `O=C(Nc1cc(N(CCO)Cc2cn3cc(C4CC4)ccc3n2)ncn1)[C@H]1C[C@@H]1c1cc(Cl)ccn1` [Example 328, (1S,2S)-2-(4-chloropyridin-2-yl)-N-(6-(((6-cyclopropylimidazo[1,2-a]pyridin-2-yl)methyl)(2-hydroxyethyl)amino)pyrimidin-4-yl)cyclopropane-1-carboxamide], the concentration giving a half-maximal response (EC50) lay within 10 to 100 nM.

On to `N#Cc1ccc(Cl)cc1C1CC1C(=O)Nc1cc(NCc2cn3cc(C4CC4)cc(N4CCCC4=O)c3n2)ncn1` (stereo not shown) [Example 335], for which the half-maximal effective concentration (EC50) was 100 to 1000 nM.

Take `COc1cc(NCc2cn3cc(C4CC4)ccc3n2)cc(NC(=O)[C@H]2C[C@@H]2c2cc(Cl)ccn2)n1` [Example 339, (1S,2S)-2-(4-chloropyridin-2-yl)-N-(4-(((6-cyclopropylimidazo[1,2-a]pyridin-2-yl)methyl)amino)-6-methoxypyridin-2-yl)cyclopropane-1-carboxamide]: the concentration for a half-maximal effect (EC50) fell in the range of 1 to 10 nM.

For the compound `COc1cc(NCc2cn3cc(C4CC4)ccc3n2)cc(NC(=O)[C@H]2C[C@@H]2c2cccc(Cl)c2)n1` [Example 340, (1S,2S)-2-(3-chlorophenyl)-N-(4-(((6-cyclopropylimidazo[1,2-a]pyridin-2-yl)methyl)amino)-6-methoxypyridin-2-yl)cyclopropane-1-carboxamide], the EC50 lay in the range of 1 to 10 nM.

`N#CC1(c2cccc(Cl)c2)CC1C(=O)Nc1cc(NCc2cn3cc(C4CC4)ccc3n2)ncn1` (stereo not shown) [Example 349, 2-(3-chlorophenyl)-2-cyano-N-(6-(((6-cyclopropylimidazo[1,2-a]pyridin-2-yl)methyl)amino)pyrimidin-4-yl)cyclopropane-1-carboxamide]: the EC50 is more than 6000 nM.

As to `CN(C(=O)[C@H]1C[C@@H]1c1cccc(Cl)c1)c1cc(NCc2cn3cc(C4CC4)ccc3n2)ncn1` [Example 350, (1S,2S)-2-(3-chlorophenyl)-N-(6-(((6-cyclopropylimidazo[1,2-a]pyridin-2-yl)methyl)amino)pyrimidin-4-yl)-N-methylcyclopropane-1-carboxamide], the concentration for a half-maximal effect (EC50) was more than 6000 nM.

Take `Cc1ccnc([C@H]2C[C@@H]2C(=O)Nc2cc(NC(C)c3cn4c(N5CC(=O)N(C)C5=O)cc(C5CC5)cc4n3)nc(C)n2)n1` (stereo partly drawn) [Example 362, (1S,2S)-N-(6-((1-(7-cyclopropyl-5-(3-methyl-2,4-dioxoimidazolidin-1-yl)imidazo[1,2-a]pyridin-2-yl)ethyl)amino)-2-methylpyrimidin-4-yl)-2-(4-methylpyrimidin-2-yl)cyclopropane-1-carboxamide]: the EC50 is 100 to 1000 nM.

Regarding `Cc1ccnc([C@H]2C[C@@H]2C(=O)Nc2cc(NC(c3cn4cc(C5CC5)cc(N5CC(=O)N(C)C5=O)c4n3)C(F)(F)F)ncn2)n1` (stereo partly drawn) [Example 370, (1S,2S)-N-(6-((1-(6-cyclopropyl-8-(3-methyl-2,4-dioxoimidazolidin-1-yl)imidazo[1,2-a]pyridin-2-yl)-2,2,2-trifluoroethyl)amino)pyrimidin-4-yl)-2-(4-methylpyrimidin-2-yl)cyclopropane-1-carboxamide], the 50% effective concentration (EC50) was in the range of 10 to 100 nM.

On to `Cc1ccnc([C@H]2C[C@@H]2C(=O)Nc2cc(NCc3cn4cc(Cl)cc(N5CC(=O)N(C)C5=O)c4n3)ncn2)n1` [Example 380, (1S,2S)-N-(6-(((6-chloro-8-(3-methyl-2,4-dioxoimidazolidin-1-yl)imidazo[1,2-a]pyridin-2-yl)methyl)amino)pyrimidin-4-yl)-2-(4-methylpyrimidin-2-yl)cyclopropane-1-carboxamide], for which the EC50 was less than 1 nM.

On to `COc1ccc(CN2C(=O)CN(c3cc(C4CC4)cn4cc(CNc5cc(NC(=O)[C@H]6C[C@@H]6c6cccc(Cl)c6)ncn5)nc34)C2=O)cc1` [Example 397, (1S,2S)-2-(3-chlorophenyl)-N-(6-(((6-cyclopropyl-8-(3-(4-methoxybenzyl)-2,4-dioxoimidazolidin-1-yl)imidazo[1,2-a]pyridin-2-yl)methyl)amino)pyrimidin-4-yl)cyclopropane-1-carboxamide], for which the concentration for a half-maximal effect (EC50) was in the range of 10 to 100 nM.

As to `O=C(Nc1cc(NCc2cn3cc(C4CC4)cc(N4CC(=O)N(CC(F)(F)F)C4=O)c3n2)ncn1)[C@H]1C[C@@H]1c1cccc(Cl)c1` [Example 398, (1S,2S)-2-(3-chlorophenyl)-N-(6-(((6-cyclopropyl-8-(2,4-dioxo-3-(2,2,2-trifluoroethyl)imidazolidin-1-yl)imidazo[1,2-a]pyridin-2-yl)methyl)amino)pyrimidin-4-yl)cyclopropane-1-carboxamide], the 50% effective concentration (EC50) fell in the range of 1 to 10 nM.
